{
  "source": "patent US20240024273A1",
  "about": "“TOPICAL ADMINISTRATION OF 2-(DIETHYLAMINO)ETHYL 2-(4-ISOBUTYLPHENYL)PROPRIONATE FOR TREATMENT OF DISEASES” (TECHFIELDS PHARMA CO., LTD., priority 2020, published 2024)",
  "test_system": "Mild to Moderate Osteoarthritis of the Knee",
  "assay": "Phase 2 study: WOMAC joint stiffness subscale score",
  "type": "in vivo, human",
  "conditions": "for Change of WOMAC Joint Stiffness score from baseline (±SEM), adjusted by […] of the Testing Drug Amount / Percentage of improvement from baseline, WOMAC Joint Stiffness score, adjusted by […] of the Testing Drug Amount / Change of WOMAC Joint Stiffness score from baseline (±SEM) / Percentage of improvement from baseline, WOMAC Joint Stiffness score: 35 mg/knee (BID); for Change of WOMAC Joint Stiffness score from baseline (±SEM) / Percentage of improvement from baseline, WOMAC Joint Stiffness score: all patients taken as active; for WOMAC Joint Stiffness Subscale Score, Avg.: Avg. of all patients; for WOMAC Joint Stiffness Subscale Score, Avg. / WOMAC Joint Stiffness Subscale Score: blinded; for WOMAC Joint Stiffness Subscale Score: individual patient",
  "source_text": "This is a Phase 2, multicenter, randomized, double blind (within dose), placebo controlled, parallel group, proof of concept, and dose range finding study to evaluate the efficacy, safety, and PK of 2-(diethylamino)ethyl 2-(4-isobutylphenyl)propionate hydrochloride spray in adult subjects with clinically symptomatic mild to moderate OA of the knee. For subjects with bilateral knee pain, both knees will be treated, but the most symptomatic knee (i.e., the most painful knee as measured by the Western Ontario and McMaster University Osteoarthritis Index [WOMAC® 3.1] pain subscale score at Screening) will be designated as the target knee for efficacy analyses. For subjects with unilateral knee pain, only the symptomatic (target) knee will be treated.\nAfter a Screening Period of up to 3 weeks and radiographic evaluation of the target knee joint space, a subject will be randomly assigned to 1 of 3 treatment groups in a 1:1:1 ratio with a 2:1 ratio of active:placebo within each treatment group (ie, 2 subjects to active treatment and 1 subject to placebo): • Group A: 8.75 mg 2-(diethylamino)ethyl 2-(4-isobutylphenyl)propionate/knee (2 sprays/knee, one spray to the medial surface and one spray to the lateral surface of the knee), twice daily (BID, approximately every 12 hours; n=50) or placebo (2 sprays/knee), BID (approximately every 12 hours; n=25) for a total of 4 sprays per knee per day; • Group B: 17.5 mg 2-(diethylamino)ethyl 2-(4-isobutylphenyl)propionate/knee (4 sprays/knee, one spray to the medial surface and one spray to the lateral surface of the knee, and one spray to front and one spray to the back of the knee), BID (approximately every 12 hours; n=50) or placebo (4 sprays/knee), BID (approximately every 12 hours; n=25) for a total of 8 sprays per knee per day; • Group C: 35 mg 2-(diethylamino)ethyl 2-(4-isobutylphenyl)propionate/knee (8 sprays/knee, each spray is to be applied to a different non-overlapping area around the knee, and the areas are to be uniformly distributed around the knee), BID (approximately every 12 hours; n=50) or placebo (8 sprays/knee), BID (approximately every 12 hours; n=25) for a total of 16 sprays per knee per day.\nThe VAS version of the WOMAC will be used for the Primary and Secondary Efficacy Endpoints. Efficacy endpoints will be assessed at Screening and Baseline (Day 1) and at the Week 2, Week 4, Week 8, and Week 12/EOS visits.\n3.9.2. Secondary Efficacy Endpoints: • 1. Change from Baseline in the WOMAC (VAS) pain subscale score for the target knee at 2, 4, and 8 weeks of treatment; • 2. Change from Baseline in the WOMAC (VAS) stiffness subscale scores for the target knee and WOMAC (VAS) functional ability subscale scores at 2, 4, 8, and 12 weeks of treatment; • 3. Change from Baseline in the overall WOMAC (VAS) score at 2, 4, 8, and 12 weeks of treatment.\nThe Secondary Efficacy Endpoints, change from Baseline in the WOMAC subscale scores for pain, stiffness, and functional ability, and overall WOMAC score at 2, 4, 8, and 12 weeks of treatment, will be analyzed using the same methods as for the Primary Efficacy Endpoint.\nTo determine this, we assumed that all patients received 2-(diethylamino)ethyl 2-(4-isobutylphenyl)propionate, active drug treatment (i.e. all patients who received 2-(diethylamino)ethyl 2-(4-isobutylphenyl)propionate or placebo treatment for 12 weeks or mixed up treatment during the 12-week treatment, as 2-(diethylamino)ethyl 2-(4-isobutylphenyl)propionate-treated). Based on this assumption, that is, to treat this trial as an open-label study and that all patients received active treatment, we conducted efficacy analysis using top-line efficacy datasets prepared by CRO and the re-analysis results are presented in the following tables (Tables 29-47). […] (William G. Bensen, Justus J. Fiechtner, James 1. McMillen, et. al. Treatment of Osteoarthritis with Celecoxib. Mayo Clin Proc, November 1999. Vol 74, 1095-1105.)",
  "key": {"[1]": {"conditions": "Middle Dose (4 spray/knee, 17.5 mg/knee) Cohort, Day 1"}, "[2]": {"conditions": "Middle Dose (4 spray/knee, 17.5 mg/knee) Cohort, Week 2"}},
  "data": [
    {"smiles": "CCN(CC)CCOC(=O)C(C)c1ccc(CC(C)C)cc1", "note": "(centres unmarked) [2-(diethylamino)ethyl 2-(4-isobutylphenyl)propionate]", "values": [
      {"measurement": "Change of WOMAC Joint Stiffness score from baseline (±SEM), adjusted by […] of the Testing Drug Amount", "setting": "Week 8 (day 56)", "value": "−36.9(±5.8) mm"},
      {"measurement": "Percentage of improvement from baseline, WOMAC Joint Stiffness score, adjusted by […] of the Testing Drug Amount", "setting": "Week 8 (day 56)", "value": "−59.3", "unit": "%"},
      {"measurement": "Change of WOMAC Joint Stiffness score from baseline (±SEM)", "setting": "Week 8 (day 56)", "value": "−21.5(±3.4) mm"},
      {"measurement": "Percentage of improvement from baseline, WOMAC Joint Stiffness score", "setting": "Week 8 (day 56)", "value": "−34.6", "unit": "%"},
      {"measurement": "Change of WOMAC Joint Stiffness score from baseline (±SEM), adjusted by […] of the Testing Drug Amount", "setting": "Week 12 (day 84)", "value": "−41.2(±5.7) mm"},
      {"measurement": "Percentage of improvement from baseline, WOMAC Joint Stiffness score, adjusted by […] of the Testing Drug Amount", "setting": "Week 12 (day 84)", "value": "−66.2", "unit": "%"},
      {"measurement": "Change of WOMAC Joint Stiffness score from baseline (±SEM)", "setting": "Week 12 (day 84)", "value": "−24.0(±3.3) mm"},
      {"measurement": "Percentage of improvement from baseline, WOMAC Joint Stiffness score", "setting": "Week 12 (day 84)", "value": "−38.6", "unit": "%"},
      {"measurement": "reduction of Stiffness WOMAC from baseline to week 12", "setting": "5 patients on second batch active drug kits", "value": "58.6-100%"},
      {"measurement": "WOMAC Joint Stiffness Subscale Score, Avg.", "setting": "35 mg/knee (8 spray/knee), Day 1", "value": 62.1},
      {"measurement": "WOMAC Joint Stiffness Subscale Score, Avg.", "setting": "35 mg/knee (8 spray/knee), Follow-up", "value": 37.7},
      {"measurement": "WOMAC Joint Stiffness Subscale Score, Avg.", "setting": "35 mg/knee (8 spray/knee), Week 2", "value": 50.8},
      {"measurement": "WOMAC Joint Stiffness Subscale Score, Avg.", "setting": "35 mg/knee (8 spray/knee), Week 4", "value": 44.5},
      {"measurement": "WOMAC Joint Stiffness Subscale Score, Avg.", "setting": "35 mg/knee (8 spray/knee), Week 8", "value": 40.6},
      {"measurement": "WOMAC Joint Stiffness Subscale Score, Avg.", "setting": "35 mg/knee (8 spray/knee), Week 12", "value": 38.1},
      {"measurement": "WOMAC Joint Stiffness Subscale Score, Avg.", "setting": "[1]", "value": 68.0},
      {"measurement": "WOMAC Joint Stiffness Subscale Score, Avg.", "setting": "Middle Dose (4 spray/knee, 17.5 mg/knee) Cohort, Follow-up", "value": 41.9},
      {"measurement": "WOMAC Joint Stiffness Subscale Score, Avg.", "setting": "[2]", "value": 49.2},
      {"measurement": "WOMAC Joint Stiffness Subscale Score, Avg.", "setting": "Middle Dose (4 spray/knee, 17.5 mg/knee) Cohort, Week 4", "value": 44.7},
      {"measurement": "WOMAC Joint Stiffness Subscale Score, Avg.", "setting": "Middle Dose (4 spray/knee, 17.5 mg/knee) Cohort, Week 8", "value": 41.5},
      {"measurement": "WOMAC Joint Stiffness Subscale Score, Avg.", "setting": "Middle Dose (4 spray/knee, 17.5 mg/knee) Cohort, Week 12", "value": 38.2},
      {"measurement": "WOMAC Joint Stiffness Subscale, WOMAC VAS Score", "setting": "Patient 1056, second batch active drug kits, Day 1", "value": 48.5, "unit": "mm"},
      {"measurement": "WOMAC Joint Stiffness Subscale, WOMAC VAS Score", "setting": "Patient 1056, second batch active drug kits, Follow Up", "value": 17.0, "unit": "mm"},
      {"measurement": "WOMAC Joint Stiffness Subscale, WOMAC VAS Score", "setting": "Patient 1056, second batch active drug kits, Week 2", "value": 45.0, "unit": "mm"},
      {"measurement": "WOMAC Joint Stiffness Subscale, WOMAC VAS Score", "setting": "Patient 1056, second batch active drug kits, Week 4", "value": 44.5, "unit": "mm"},
      {"measurement": "WOMAC Joint Stiffness Subscale, WOMAC VAS Score", "setting": "Patient 1056, second batch active drug kits, Week 8", "value": 43.5, "unit": "mm"},
      {"measurement": "WOMAC Joint Stiffness Subscale, WOMAC VAS Score", "setting": "Patient 1056, second batch active drug kits, Week 12", "value": 23.5, "unit": "mm"},
      {"measurement": "WOMAC Joint Stiffness Subscale, WOMAC VAS Score", "setting": "Patient 1064, second batch active drug kits, Day 1", "value": 66.5, "unit": "mm"},
      {"measurement": "WOMAC Joint Stiffness Subscale, WOMAC VAS Score", "setting": "Patient 1064, second batch active drug kits, Follow Up", "value": 1.0, "unit": "mm"},
      {"measurement": "WOMAC Joint Stiffness Subscale, WOMAC VAS Score", "setting": "Patient 1064, second batch active drug kits, Week 2", "value": 20.5, "unit": "mm"},
      {"measurement": "WOMAC Joint Stiffness Subscale, WOMAC VAS Score", "setting": "Patient 1064, second batch active drug kits, Week 4", "value": 12.5, "unit": "mm"},
      {"measurement": "WOMAC Joint Stiffness Subscale, WOMAC VAS Score", "setting": "Patient 1064, second batch active drug kits, Week 8", "value": 0.0, "unit": "mm"},
      {"measurement": "WOMAC Joint Stiffness Subscale, WOMAC VAS Score", "setting": "Patient 1064, second batch active drug kits, Week 12", "value": 1.0, "unit": "mm"},
      {"measurement": "WOMAC Joint Stiffness Subscale, WOMAC VAS Score", "setting": "Patient 1535, second batch active drug kits, Day 1", "value": 55.0, "unit": "mm"},
      {"measurement": "WOMAC Joint Stiffness Subscale, WOMAC VAS Score", "setting": "Patient 1535, second batch active drug kits, Follow Up", "value": 0.0, "unit": "mm"},
      {"measurement": "WOMAC Joint Stiffness Subscale, WOMAC VAS Score", "setting": "Patient 1535, second batch active drug kits, Week 2", "value": 3.5, "unit": "mm"},
      {"measurement": "WOMAC Joint Stiffness Subscale, WOMAC VAS Score", "setting": "Patient 1535, second batch active drug kits, Week 4", "value": 3.0, "unit": "mm"},
      {"measurement": "WOMAC Joint Stiffness Subscale, WOMAC VAS Score", "setting": "Patient 1535, second batch active drug kits, Week 8", "value": 3.0, "unit": "mm"},
      {"measurement": "WOMAC Joint Stiffness Subscale, WOMAC VAS Score", "setting": "Patient 1535, second batch active drug kits, Week 12", "value": 0.0, "unit": "mm"},
      {"measurement": "WOMAC Joint Stiffness Subscale, WOMAC VAS Score", "setting": "Patient 1539, second batch active drug kits, Day 1", "value": 70.0, "unit": "mm"},
      {"measurement": "WOMAC Joint Stiffness Subscale, WOMAC VAS Score", "setting": "Patient 1539, second batch active drug kits, Follow Up", "value": 2.0, "unit": "mm"},
      {"measurement": "WOMAC Joint Stiffness Subscale, WOMAC VAS Score", "setting": "Patient 1539, second batch active drug kits, Week 2", "value": 54.5, "unit": "mm"},
      {"measurement": "WOMAC Joint Stiffness Subscale, WOMAC VAS Score", "setting": "Patient 1539, second batch active drug kits, Week 4", "value": 44.0, "unit": "mm"},
      {"measurement": "WOMAC Joint Stiffness Subscale, WOMAC VAS Score", "setting": "Patient 1539, second batch active drug kits, Week 8", "value": 8.0, "unit": "mm"},
      {"measurement": "WOMAC Joint Stiffness Subscale, WOMAC VAS Score", "setting": "Patient 1539, second batch active drug kits, Week 12", "value": 3.0, "unit": "mm"},
      {"measurement": "WOMAC Joint Stiffness Subscale, WOMAC VAS Score", "setting": "Patient 9032, second batch active drug kits, Day 1", "value": 14.5, "unit": "mm"},
      {"measurement": "WOMAC Joint Stiffness Subscale, WOMAC VAS Score", "setting": "Patient 9032, second batch active drug kits, Follow Up", "value": 9.5, "unit": "mm"},
      {"measurement": "WOMAC Joint Stiffness Subscale, WOMAC VAS Score", "setting": "Patient 9032, second batch active drug kits, Week 2", "value": 9.5, "unit": "mm"},
      {"measurement": "WOMAC Joint Stiffness Subscale, WOMAC VAS Score", "setting": "Patient 9032, second batch active drug kits, Week 4", "value": 5.0, "unit": "mm"},
      {"measurement": "WOMAC Joint Stiffness Subscale, WOMAC VAS Score", "setting": "Patient 9032, second batch active drug kits, Week 8", "value": 3.0, "unit": "mm"},
      {"measurement": "WOMAC Joint Stiffness Subscale, WOMAC VAS Score", "setting": "Patient 9032, second batch active drug kits, Week 12", "value": 6.0, "unit": "mm"},
      {"measurement": "WOMAC Joint Stiffness Subscale Score", "setting": "[1]", "value": 64.5},
      {"measurement": "WOMAC Joint Stiffness Subscale Score", "setting": "[2]", "value": 62.0}
    ]}
  ]
}
